The values that follow come from patent US8895585B2, “Nicotinamide derivative or salt thereof” (FUJIFILM Corporation, priority 2010, dated 2014).

Read-outs that look alike come from different tables or passages of the source.

One may read the IC50 as the concentration needed to halve the response being measured.

The target of this test is T1, glutathione S-transferase (GST)-fused full-length human Syk protein (Homo sapiens, UniProt P43405).
T1 construct: (GST)-fused full-length human Syk protein; GST (glutathione S-transferase); purchased Carna Biosciences
In words: Syk enzyme assay. The class given is biochemical. Here is the method: A glutathione S-transferase (GST)-fused full-length human Syk protein (Carna Biosciences), which had been generated using a Baculovirus expression system, was used in the Syk enzyme assay.
15 μl of a reaction solution (1.2 ng Syk, 20 mM HEPES, 10 mM MgCl2, 50 mM NaCl, 2 mM DTT, 0.05% BSA, pH 7.0) containing a Syk protein and a predetermined concentration of a test compound was shaken for 2 minutes, and it was then left at rest at room temperature for 13 minutes. Thereafter, 5 μl of Biotin-EDPDYEWPSA-NH2 (final concentration: 0.4 μM) serving as a substrate peptide and 5 μl of ATP (final concentration: 27 μM) were added to the reaction solution, and the obtained mixture was then shaken for 2 minutes. The reaction solution was further left at rest at room temperature for 40 minutes, so as to carry out an enzyme reaction.
Thereafter, 50 μl of a reaction termination solution [5 μg/ml Streptavidin, 0.18 μg/ml PT66-K, 30 mM HEPES (pH 7.0), 150 mM KF, 75 mM EDTA, 0.15% BSA, 0.075% Tween20], which contained Streptavidin-Xlent (Cisbio) and Mab PT66-K (Cisbio), was added to the reaction solution to terminate the enzyme reaction. At the same time, the reaction solution was left at rest at room temperature for 1 hour, so as to carry out an antigen-antibody reaction. Thereafter, using EnVision (PerkinElmer), the time-resolved fluorescence was measured at 615 nm and 665 nm, so that the phosphorylation of the substrate peptide was measured.
In addition, the following are standards for evaluating IC50 of Syk-inhibitory activity used in Table 21. • A: Up to 10 nM • B: 10 to 50 nM • C: 50 to 100 nM • D: 100 to 1000 nM The set of numbers (XYZ-xyz) given in each Example number column indicates the corresponding Example number (Example XYZ-xyz) in Table 21.

The mark [1] stands for this setting: Syk enzyme assay, Test Example 1, read-out: IC50 of Syk-inhibitory activity.
Setting [2] is: read-out: Syk-inhibitory activity (IC50).

For the compound `NC[C@@H](CC1CC1)Nc1nc(Nc2cncc(-c3ccccc3)c2)c(C(N)=O)cc1F` [Example 006-283, (R)-6-((1-amino-3-cyclopropylpropan-2-yl)amino)-5-fluoro-2-((5-phenylpyridin-3-yl)amino)nicotinamide], the IC50 under setting [1] is 0.01 to 0.05 µM.

On to `CC(C)C[C@@H](Nc1nc(Nc2ccc3c(c2)c(C(C)C)nn3C)c(C(N)=O)cc1F)[C@H](C)N` [Example 006-542, 6-(((2S,3R)-2-amino-5-methylhexan-3-yl)amino)-5-fluoro-2-((3-isopropyl-1-methyl-1H-indazol-5-yl)amino)nicotinamide], for which the IC50 under setting [1] was under 0.01 µM. `CCNc1nc(Nc2cc(OC)cc(OC)c2)c(C(N)=O)cc1F` [Example 15, 2-(3,5-dimethoxyphenylamino)-6-(ethylamino)-5-fluoronicotinamide]: the IC50 under setting [2] is at most 1 µM. Regarding `NC[C@H](Nc1nc(Nc2cncc(-c3ccccc3)c2)c(C(N)=O)cc1F)C1CC1` [Example 006-337, (R)-6-((2-amino-1-cyclopropylethyl)amino)-5-fluoro-2-((5-phenylpyridin-3-yl)amino)nicotinamide], under setting [1], the IC50 was in the range of 0.01 to 0.05 µM.

As for `COc1cc(Nc2nc(NC3CN(C(=O)OCc4ccccc4)CCC3N)c(F)cc2C(N)=O)ccn1` [Example 006-529, (3R,4S)-benzyl 4-amino-3-((5-carbamoyl-3-fluoro-6-((2-methoxypyridin-4-yl)amino)pyridin-2-yl)amino)piperidine-1-carboxylate) and (3S,4R)-benzyl-4-amino-3-((5-carbamoyl-3-fluoro-6-((2-methoxypyridin-4-yl)amino)pyridin-2-yl)amino)piperidine-1-carboxylate(=1:1)], the IC50 under setting [1] lay in the range of 0.1 to 1 µM. Regarding `NC(=O)c1cc(F)c(NC2CCCCC2N)nc1Nc1ccnc(-c2cccc3cccnc23)c1` (stereo not drawn) [Example 002-182], under setting [1], the IC50 lay in the range of 0.1 to 1 µM. Turning to `COc1cc(Nc2nc(NC(C)(C)C(N)=O)c(F)cc2C(N)=O)cc(OC)c1` [Example 033-002], the IC50 under setting [1] lay in the range of 0.1 to 1 µM. Same read-out and setting: the value for `NC(=O)c1cc(F)c(NC2CCCCC2N)nc1Nc1cccn2ccnc12` (stereo not drawn) [Example 002-064] was 0.1 to 1 µM; that for `CC[C@H](N)[C@@H](CC)Nc1nc(Nc2cncc(F)c2)c(C(N)=O)cc1F` [Example 006-382, 6-(((3R,4S)-4-aminohexan-3-yl)amino)-5-fluoro-2-((5-fluoropyridin-3-yl)amino)nicotinamide] was 0.01 to 0.05 µM. As for `CCn1ncc2ccc(Nc3nc(N[C@H](CC4CC4)[C@H](C)N)c(F)cc3C(N)=O)cc21` [Example 006-436], the IC50 under setting [1] lay in the range of 0.01 to 0.05 µM. Consider `Cn1ccc2c(Nc3nc(N[C@@H]4CCCC[C@@H]4N)c(F)cc3C(N)=O)cccc21` (relative stereo) [Example 006-059, 6-(cis-2-aminocyclohexylamino)-5-fluoro-2-((1-methyl-1H-indol-4-yl)amino)nicotinamide], for which, under setting [1], the IC50 is under 0.01 µM.

For `CCC[C@@H](Nc1nc(Nc2cc(OC)nc(OC)c2)c(C(N)=O)cc1F)[C@@H](N)CC` [Example 006-413, 6-(((3S,4R)-3-aminoheptan-4-yl)amino)-2-((2,6-dimethoxypyridin-4-yl)amino)-5-fluoronicotinamide], under setting [1], the IC50 was under 0.01 µM. Same read-out and setting: the figure for `NC(=O)c1cc(F)c(NCc2ccccn2)nc1Nc1ccc2ncccc2c1` [Example 012-016] is 0.1 to 1 µM.

Consider `NC(=O)c1cc(F)c(N[C@@H]2CCCC[C@@H]2N)nc1Nc1cncc(-n2ccccc2=O)c1` (relative stereo) [Example 004-211, 6-(cis-2-aminocyclohexylamino)-5-fluoro-2-((2-oxo-2H-[1,3′-bipyridin]-5′-yl)amino)nicotinamide], for which the IC50 under setting [1] lay within 0.1 to 1 µM. As for `NC(=O)c1cc(F)c(NC2CCCCC2N)nc1Nc1cncc(NC(=O)c2ccc3occc3c2)c1` (stereo not drawn) [Example 027-037], under setting [1], the IC50 lay in the range of 0.01 to 0.05 µM. Still for that read-out and setting: the value for `C[C@H](N)[C@@H](CC1CC1)Nc1nc(Nc2ccc3cnn(CC(F)F)c3c2)c(C(N)=O)cc1F` [Example 006-438, 6-(((2R,3S)-3-amino-1-cyclopropylbutan-2-yl)amino)-2-((1-(2,2-difluoroethyl)-1H-indazol-6-yl)amino)-5-fluoronicotinamide] was 0.01 to 0.05 µM; that for `COc1cccc(Nc2nc(NC3CCCCC3N)c(F)cc2C(N)=O)c1` (stereo not drawn) [Example 002-006] was under 0.01 µM; that for `NC(=O)c1cc(F)c(NC2CCCCC2N)nc1Nc1ccnc(OCc2ccccc2)c1` (stereo not drawn) [Example 002-086] was 0.01 to 0.05 µM. `CCCc1nn(C2CC2)c2ccc(Nc3nc(N[C@@H]4CCCC[C@@H]4N)c(F)cc3C(N)=O)cc12` [Example 006-479, 6-(((1R,2S)-2-aminocyclohexyl)amino)-2-((1-cyclopropyl-3-propyl-1H-indazol-5-yl)amino)-5-fluoronicotinamide]: the IC50 under setting [1] is under 0.01 µM. Same read-out and setting: the value for `CC1CN(c2ccc(Nc3nc(NC4CCCCC4N)c(F)cc3C(N)=O)cn2)CC(C)O1` (stereo not drawn) [Example 002-127] was 0.01 to 0.05 µM.

Take `CCNc1nc(Nc2ccc3cn[nH]c3c2)c(C(N)=O)cc1F` [Example 6-18, 6-(ethylamino)-5-fluoro-2-((1H-indazol-6-yl)amino)nicotinamide]: the 50% inhibitory concentration (IC50) under setting [2] was at most 1 µM. `NC(=O)c1cc(F)c(N[C@@H]2CCCC[C@@H]2N)nc1Nc1cncc(-c2cccc(OCCN3CCOCC3)c2)c1` (relative stereo) [Example 004-110, 6-(cis-2-aminocyclohexylamino)-5-fluoro-2-((5-(3-(2-morpholinoethoxy)phenyl)pyridin-3-yl)amino)nicotinamide]: the 50% inhibitory concentration (IC50) under setting [1] is under 0.01 µM. The same measure, in the same setting: the figure for `NC(=O)c1cc(F)c(NCc2ncc[nH]2)nc1Nc1ccc2ncccc2c1` [Example 012-028] is 0.1 to 1 µM; for `CCCC[C@H](CN)Nc1nc(Nc2ccc3c(cnn3C)c2)c(C(N)=O)cc1F` [Example 006-292, (R)-6-((1-aminohexan-2-yl)amino)-5-fluoro-2-((1-methyl-1H-indazol-5-yl)amino)nicotinamide] it is under 0.01 µM; for `NC(=O)c1cc(F)c(N[C@@H]2CCCC[C@@H]2N)nc1Nc1cc(N2CCOCC2)nc2[nH]ccc12` (relative stereo) [Example 004-066, 6-(cis-2-aminocyclohexylamino)-5-fluoro-2-((6-morpholino-1H-pyrrolo[2,3-b]pyridin-4-yl)-amino)nicotinamide] it is under 0.01 µM. The same measure, in the same setting: the value for `Cn1ccc2cc(-c3cncc(Nc4nc(N[C@@H]5CCCC[C@@H]5N)c(F)cc4C(N)=O)c3)ccc21` (relative stereo) [Example 006-091, 6-((cis-2-aminocyclohexyl)amino)-5-fluoro-2-((5-(1-methyl-1H-indol-5-yl)pyridin-3-yl)amino)nicotinamide] was 0.01 to 0.05 µM.

`Cn1ncc2ccc(Nc3nc(NCCN)c(F)cc3C(N)=O)cc21` [Example 6-27, 6-((2-aminoethyl)amino)-5-fluoro-2-((1-methyl-1H-indazol-6-yl)amino)nicotinamide]: the IC50 under setting [2] is at most 1 µM. For the compound `COCCn1nc(F)c2c(Nc3nc(N[C@H](CC4CC4)[C@H](C)N)c(F)cc3C(N)=O)cccc21` [Example 006-490, 6-(((2R,3S)-3-amino-1-cyclopropylbutan-2-yl)amino)-5-fluoro-2-((3-fluoro-1-(2-methoxyethyl)-1H-indazol-4-yl)amino)nicotinamide], under setting [1], the 50% inhibitory concentration (IC50) was in the range of 0.05 to 0.1 µM. Regarding `COc1ccnc2cc(Nc3nc(NC4CCCCC4N)c(F)cc3C(N)=O)ccc12` (stereo not drawn) [Example 002-089], the IC50 under setting [1] is 0.01 to 0.05 µM. As for `NC(=O)c1cc(F)c(NC2CCCCC2N)nc1Nc1cncc(NC(=O)c2ccc3c(c2)OCO3)c1` (stereo not drawn) [Example 027-034], the IC50 under setting [1] lay within 0.01 to 0.05 µM. On the same count and under the same terms, the figure for `NC(=O)c1cc(F)c(NC2CCCCC2N)nc1Nc1ccnc(-c2cc(Cl)ccc2F)c1` (stereo not drawn) [Example 002-147] is under 0.01 µM; for `CCOCCOc1ccc2cc(Nc3nc(NC4CCCCC4N)c(F)cc3C(N)=O)ccc2n1` (stereo not drawn) [Example 002-107] it is under 0.01 µM. For `NC(=O)c1cc(F)c(NC2CCCCC2N)nc1Nc1ccnc(-c2ccc3ccncc3c2)c1` (stereo not drawn) [Example 002-194], under setting [1], the IC50 is under 0.01 µM. `COc1ncc(Nc2nc(NC3CCCCC3N)c(F)cc2C(N)=O)cc1-c1ccoc1` (stereo not drawn) [Example 002-151]: under setting [1], the IC50 was in the range of 0.01 to 0.05 µM. For the compound `NC(=O)c1cc(F)c(NC2CCCCC2N)nc1Nc1cccc2c1cnn2CC1CC1` (stereo not drawn) [Example 002-028], under setting [1], the half-inhibitory concentration (IC50) is under 0.01 µM. On the same count and under the same terms, the value for `Cc1ncc(Nc2nc(NC3CCCCC3N)c(F)cc2C(N)=O)cc1N1CCCC1` (stereo not drawn) [Example 002-040] was 0.01 to 0.05 µM.

For the compound `NC(=O)c1cc(F)c(NC2CCCCC2N)nc1Nc1ccc(N2CCCC2)nc1` (stereo not drawn) [Example 002-078], the IC50 under setting [1] lay in the range of 0.01 to 0.05 µM.

With `Cc1ncc(Nc2nc(NC3CCCCC3N)c(F)cc2C(N)=O)cc1-c1ccccc1` (stereo not drawn) [Example 002-023], under setting [1], the IC50 was under 0.01 µM. As to `CCNc1nc(Nc2cnc3ccccc3c2)c(C(N)=O)cc1F` [Example 6-20, 6-(ethylamino)-5-fluoro-2-(quinolin-3-ylamino)nicotinamide], the IC50 under setting [2] was at most 1 µM.
